IC50 data for five compounds are collected here from US20110124674A1, “5/5-OR 5/6-MEMBERED CONDENSED RING CYCLOALKYLAMINE DERIVATIVE” (priority 2008, published 2011).

This assay deals with T1, human MCH-1R (Homo sapiens, UniProt Q99705).
T1 construct: expressed in transfected cells; host or cells: CHO-K1 (American Type Culture Collection), vector pEF/myc/cyto
T1 sequence (Q99705 whole entry): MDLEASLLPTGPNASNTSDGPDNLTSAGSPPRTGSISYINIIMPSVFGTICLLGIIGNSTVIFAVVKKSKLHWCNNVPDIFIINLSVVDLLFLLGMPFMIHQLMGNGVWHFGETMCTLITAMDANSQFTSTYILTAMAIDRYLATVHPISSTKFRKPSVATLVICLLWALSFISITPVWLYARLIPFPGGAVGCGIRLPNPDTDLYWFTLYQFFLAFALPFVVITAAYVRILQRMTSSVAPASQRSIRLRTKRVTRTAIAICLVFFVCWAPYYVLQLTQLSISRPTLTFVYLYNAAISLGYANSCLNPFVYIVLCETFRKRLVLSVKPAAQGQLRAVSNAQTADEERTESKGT
The experiment in a line: MCH binding inhibition test ([125I]MCH binding to membranes of MCH-1R expressing CHO-K1 cells). The following applies: membranes of CHO-K1 cells expressing human MCH-1R; 50 pM [125I]MCH; 25° C., 1 hour; pH 7.4; read-out: IC50 (50% inhibition concentration of test compound to the specific [125I]MCH binding). An excerpt:
Pharmacological Test Example: MCH Binding Inhibition Test
A human MCH-1R encoding cDNA sequence [FEBS Letters, Vol. 398, 253 (1996); Biochimica et Biophisica Acta, Vol. 1401, 216 (1998)] was cloned to a plasmid vector pEF/myc/cyto (by Invitrogen Corporation). The obtained expression vector was transfected to host cells CHO-K1 (American Type Culture Collection) using Lipofectamine Plus Reagent (by Life Technology Inc.) to provide MCH-1R expression cells.
Membrane samples prepared from the MCH-1R expression cells were incubated with each test compound and 50 pM of [^125I]MCH (by NEN Co.), in an assay buffer (50 mM Tris buffer comprising 10 mM magnesium chloride, 2 mM ethylenediamine tetraacetate, 0.01% bacitracin and 0.2% bovine serum albumin; pH 7.4) at 25° C. for an hour, followed by filtration through a glass filter GF/C (by Wattman Co.). After washing the glass filter with 50 mM Tris buffer (pH 7.4) comprising 10 mM magnesium chloride, 2 mM ethylenediamine tetraacettic acid and 0.04% Tween-20, the radio activity on the glass filter was measured. The non-specific binding was measured in the presence of 1 μM human MCH, and the 50% inhibition concentration (IC50 value) of each test compound to the specific [^125I]MCH binding was determined.
In the case of `COc1cc(C(=O)NC2CCN(Cc3cn(C)c4ccccc34)CC2)cc(OC)c1C` [Example 2-2, 4-methyl-N-{1-[(1-methyl-1-H-indol-3-yl)methyl]-4-piperidinyl}-3,5-bis(methyloxy)benzamide], the IC50 turned out to be 0.013 µM. The figure for `COc1cc(C(=O)NC2CCN(Cc3c(C)n(C)c4ccccc34)CC2)cc(OC)c1C` [Example 2-5, N-{1-[(1,2-dimethyl-1H-indol-3-yl)methyl]-4-piperidinyl}-4-methyl-3,5-bis(methyloxy)benzamide] is 0.026 µM.

Turning to `C#CCn1cc(CN2CCC(NC(=O)c3cc(OC)c(C)c(OC)c3)CC2)c2ccccc21` [Example 2-10, 4-methyl-3,5-bis(methyloxy)-N-(1-{[1-(2-propyn-1-yl)-1H-indol-3-yl]methyl}-4-piperidinyl)benzamide], the IC50 was 0.022 µM. Under `COc1cc(C(=O)NC2CCN(Cc3[nH]c4ccccc4c3C)CC2)cc(OC)c1C` [Example 2-18, 4-methyl-N-{1-[(3-methyl-1H-indol-2-yl)methyl]-4-piperidinyl}-3,5-bis(methyloxy)benzamide] stands 0.0068 µM. Under `COc1cc(C(=O)NC2CCN(Cc3cc4sccc4n3C)CC2)cc(OC)c1C` [Example 2-25, 4-methyl-3,5-bis(methyloxy)-N-{1-[(4-methyl-4H-thieno[3,2-b]pyrrol-5-yl)methyl]-4-piperidinyl]benzamide] stands 0.016 µM.
